In a melting point compilation (Tetko et al.; mined from patent text by program, amines drawn as free bases though some values may be those of a salt) one finds melting point data, which are given here for 88 compounds.

The melting point is the temperature, or range, at which the solid turns liquid.

Molecules are shown by their SMILES.

As for `COc1cc(Cl)ccc1C(C)=O`, the melting point turned out to be 55 °C. Turning to `CCCCCCCCCCCCCCCc1ccc(CO)c(O)c1`, the melting point fell in the range of 94 to 95 °C.

`Cc1cccc(-c2[nH]c(C(C)C)nc2-c2cccc(-c3ccc(N)cc3)c2)n1` gave a melting point of 107 to 117 °C. For `O=C(CC1CCCCC1)c1ccccc1` the value was 61 to 67 °C; for `O=c1ccc(-c2ccc(OCC(O)CN3CCCCC3)cc2)n[nH]1` (stereo not drawn), 185 °C; for `O=C(N[C@H](Cc1ccc(C(F)(F)F)cc1)[C@@H](O)c1ccc(F)cc1)c1ccc(Oc2ccccc2)cc1` (racemic), 186 to 187 °C.

Take `COc1cccc(C(=O)NC2(C(=O)c3cc(C)cc(C)c3)CC2)c1C`: the melting point lay within 174 to 176 °C. In turn, `CC(=O)NCP(=O)(O)O` gave a melting point of 171 to 175 °C. Take `O=S(=O)(O)c1ccc(N(Cc2ccc(F)cc2)Cc2ccc(Cl)cc2)cc1`: the melting point was more than 250 °C. The value for `CN1CCN(c2cc(NC(=O)OC(C)(C)C)c([N+](=O)[O-])cc2I)CC1` was 134 to 136 °C. The value for `OC1(c2ccc(F)cc2)N=C2SCCN2C1c1ccc(F)cc1` (stereo not drawn) was 159 to 160 °C; that for `CCOCc1cc(COc2cc(CC)nc(C)c2OC)ccc1-c1ccccc1S(=O)(=O)Nc1noc(C)c1C` was 64 to 72 °C; that for `CC(C)(Oc1ccc(Oc2ccc(OC(C)(C)C(=O)O)cc2)cc1)C(=O)O` was 125 °C.

For `C[Si](C)(C)CCC1=C(O)C(=O)c2ccccc2C1=O`, the melting point lay in the range of 98 to 100 °C. The value for `C=CCSc1nnc(C(C)(C)C)[nH]1` was 127 to 130 °C; that for `CN(Cc1sc2c(=O)c(C(=O)NCc3ccc(Cl)cc3)cn(C)c2c1CO)CC(O)c1ccc2ccccc2n1` (stereo not drawn) was 196 to 198 °C; that for `CCCC1CCC(C#Cc2ccc(OCC)c(F)c2F)CC1` (stereo not drawn) was 64 °C. For `CSc1cc(-c2nc(=O)c3ccccc3s2)ccn1` the value was 173 to 174 °C; for `CCn1c2c(c3ccccc3c1=O)C(=O)c1ccccc1-2`, 188 to 189 °C. For `N#Cc1ccc(NC(=O)c2ccc3ccccc3c2O)c(OC(F)(F)F)c1` the value was 178 °C; for `Oc1ncnc2nc(CC3CCN(CC4COc5ccccc5O4)CC3)n(Cc3ccc(F)cc3)c12` (stereo not drawn), 175 °C; for `CCCCCCCCCCN=C=O`, 110 to 112 °C. On to `COc1ccc(Cn2nnnc2S(=O)(=O)c2ccc(C)cc2)cc1`, for which the melting point was in the range of 125 to 126 °C. As to `O=C(Cn1cccc(O)c1=O)NCCN(CCNC(=O)Cn1cccc(O)c1=O)CCNC(=O)Cn1cccc(O)c1=O`, the melting point was 112 to 114 °C.

Take `CCCn1ncc2c(=O)[nH]c(-c3cc(Br)ccc3OCC)nc21`: the melting point was 172 to 173 °C. Compound `Fc1ccc(N2CCN(Cc3c[nH]c4ncccc34)CC2)cc1` yielded a melting point of 214 to 216 °C.

`CCCCCc1cnc(-c2ccc(-c3ccc(Br)cc3)cc2)nc1` displayed a melting point of 137 °C. The value for `CC(C)Cn1c(N)nc2c(N)nc3ccccc3c21` was more than 250 °C; that for `CC(C)(C)[Si](OCCOc1ccc(/C=C/C(=O)O)c(Oc2ncc(C(F)(F)F)cc2Cl)c1)(c1ccccc1)c1ccccc1` was 153 °C. In the case of `CNc1ccccc1C(=O)c1c(OC)cc(C)cc1OC`, the melting point is 215 °C.

`C1=C(/C=C/c2cccs2)CCN(Cc2c[nH]c3ncccc23)C1` gave a melting point of 202 to 204 °C. `COc1ccc(N2CCN(c3ccc(OC(F)(F)F)cc3)C(=O)C2)c(-c2ccc(N(C)C)cc2)n1`: the melting point is 116 to 120 °C.

The compound `O=C(O)C1(CO)CCc2cc(C3CCCCC3)c(Cl)cc21` (stereo not drawn) registered a melting point of 195 to 197 °C. The value for `CC(C)(C)C(=O)Oc1ccc(OC(=O)C(C)(C)C)c(C(=O)OCc2ccccc2)c1` was 90.5 to 91.8 °C. The value for `COc1ccc2c(c1Br)CCC1CN(C)CC21` (stereo not drawn) was 144 to 146 °C; that for `COCOCc1ccc(C2Cn3cc(C(=O)NCc4ccc(Cl)cc4)c(=O)c4cc(CN5CCOCC5)cc(c43)O2)cc1` (stereo not drawn) was 236 to 239 °C. The value for `Cc1nc(NC(=O)c2cccc(F)c2)sc1C(=O)NCc1ccccc1` was 162 to 165 °C. The compound `CCC(N)CCCCCCCCC(C)(C)C(=O)O` (stereo not drawn) yielded a melting point of 164 to 165 °C. For `CC(C)(C)C(=O)Oc1ccc(CNC(=O)c2cccnc2Oc2ccc(F)cc2)cc1` the value was 91 to 93 °C; for `O=C1Cc2cc3c(cc2C(c2ccc(F)cc2)=NN1)OCO3`, 205 to 207 °C; for `CN1CCN(Cc2ccc(NC(=O)c3cccc4cc(Oc5ccnc(NC(=O)C6CC6)c5)ccc34)cc2C(F)(F)F)CC1`, 218 to 220 °C.

For the compound `CC(=O)N1CCCN(NC(=O)c2ccc(F)cc2)CC1`, the melting point fell in the range of 117 to 119 °C. The compound `CCOC(=O)c1[nH]nnc1Nc1ccc(Cl)cc1` yielded a melting point of 161 °C.

`COc1ccc(NN=C(Sc2ccc(Cl)c(Cl)c2)C(C)=O)cc1` yielded a melting point of 109 to 113 °C. For `O=C1CC2Sc3nc4ccccc4n3C2(c2ccc(Cl)cc2)O1` (stereo not drawn) the value was 115 to 117 °C. For `COC(CN(C(=O)C(C)C)C(C(=O)O)c1ccccc1)OC` (stereo not drawn) the value was 147 to 149 °C; for `c1ccc2c(c1)N=C(N1CCNCC1)c1sccc1N2`, 203 to 206 °C; for `CCC(=NNC(=O)c1cccc(C(F)(F)F)c1)c1cccnc1`, 119 °C. Consider `CC(O)Cc1cc2c(cc1C(=NNc1ncccn1)c1ccc([N+](=O)[O-])cc1)OCO2` (stereo not drawn), for which the melting point is 125 to 127 °C. `COc1ccc2cccc3c2c1C(CCNC(C)=O)CC3` (stereo not drawn) showed a melting point of 98 °C. Take `CC(C)N=C(N)Nc1ccnc(OCCCO)n1`: the melting point was in the range of 181 to 183 °C. Compound `N#Cc1cc(C(=O)NNC(=O)c2occc2-c2ccccc2O)ccc1O` registered a melting point of 135 to 140 °C. For `CCCCc1nc(CO)c(S(=O)CC)n1Cc1ccc(-c2ccccc2C(=O)O)cc1` (stereo not drawn) the value was 240 °C; for `CCN1CCc2ccc(Nc3ncc(Cl)c(NCCC(=O)NC)n3)cc2CC1`, 206 °C; for `O=C(O)c1cccc2cc(Cc3cc(=O)[nH]c(=S)[nH]3)ccc12`, 334 to 337 °C. For `Nc1ccc2oc(-c3ccccc3)c(O)c(=O)c2c1` the value was 211 to 212 °C; for `CSC1=Nc2ccc(Cl)cc2Cn2nnnc21`, 131 to 133 °C. Compound `CC(C)(Oc1ccc(CCC(=O)c2ccc(-c3ccc(C(F)(F)F)cc3)s2)c(F)c1F)C(=O)O` showed a melting point of 165 to 166 °C.

In turn, `Cc1ccc2cc(-c3ccccc3)ccc2n1` returned a melting point of 95 °C. The compound `O=C1c2ccccc2C2(O)Oc3cc4ccccc4cc3C12O` (stereo not drawn) showed a melting point of 220 to 221 °C. The value for `NC1N=C(c2ccccc2)c2ccccc2N(CC(F)(F)F)C1=O` (stereo not drawn) was 141 to 143 °C. The value for `Cc1sc(Cc2ccccc2)c(-c2ccc(-c3ccc(OC(Cc4ccccc4)C(=O)O)cc3)cc2)c1C` (stereo not drawn) was 142 to 144 °C; that for `Cn1cc(-c2cccc(C(F)(F)F)c2)c(=O)c(-n2cncn2)c1` was 181 to 183 °C; that for `N#Cc1[nH]c(Br)c([N+](=O)[O-])c1Br` was 170 to 175 °C. The value for `COc1cccc(-c2cc(C3CNC(=O)C3)ccc2OC)c1` (stereo not drawn) was 137 to 139 °C; that for `Cc1nc2cc(NC(=O)c3cc4cccnc4n3Cc3cccc(F)c3)ccc2n1C` was 242 to 244 °C; that for `O=C1NCC2(CCNCC2)O1` was 95 to 96 °C. `Cc1ccc(C)c(C(=O)c2c(S(C)(=O)=O)nn(-c3c(Cl)cc(C(F)(F)F)cc3Cl)c2N)c1` had a melting point of 194 °C.

In turn, `C#Cc1ccc(S(N)(=O)=O)s1` returned a melting point of 114 to 116 °C. The value for `NC(=O)Nc1ccc(OCCn2ccnc2)cc1` was 199 to 201 °C; that for `C=CCCNCc1nnc2n1-c1ccc(Cl)cc1C(c1ccccc1)=NC2` was 157 to 160 °C; that for `CN1Cc2c(c3cc(CCCN4CCN(c5nsc6ccccc56)CC4)ccc3[nH]c2=O)C1` was 206 to 208 °C. For `O=C(NC(Cc1cccc(Cl)c1)C(=O)N1CCSC1)c1cc2cc(Cl)ccc2[nH]1` (stereo not drawn) the value was 188 to 190 °C; for `Brc1ccc2ccsc2c1`, 53 to 55 °C; for `CCN1CC[C@H](NC(=O)c2cc(Cl)c(N)c3c2OCCC3)[C@H](OC)C1` (relative stereo), 154 °C.

For the compound `O=C(Oc1ccc([N+](=O)[O-])cc1)OC1CCN(C(=O)OCc2ccccc2)CC1`, the melting point fell in the range of 118 to 120 °C. `CCOC(=O)CNc1nc(Cl)ccc1NC(=O)c1ccc(Cl)cc1` gave a melting point of 157 to 158 °C. As for `CN(C)C(=O)C(OCc1ccc(-c2ccc(Cl)cc2)cc1)C(F)(F)F` (stereo not drawn), the melting point was 103 to 107 °C. `COC(=O)c1ccc(CN2C(=O)C(CCOc3ccc(CCNC(=O)OC(C)(C)C)cc3)Oc3ccccc32)cc1` (stereo not drawn) showed a melting point of 110 to 112 °C. The value for `CN1C(=O)COC(c2cccc(Cl)c2)c2cc(C(O)(c3ccc(Cl)cc3)c3cncn3C)ccc21` (stereo not drawn) was 160 °C; that for `CCOC(=O)c1cc2cc(-c3ccc(OC(F)(F)F)cc3)ccc2n1Cc1ccc(C)cc1` was 77 to 78 °C; that for `CC(C)(C)[N+]([O-])=Cc1cc([N+](=O)[O-])ccc1O` was 172 °C.

For the compound `COc1ccc(C(=O)CCCCCl)cc1S(N)(=O)=O`, the melting point lay within 135 to 136 °C. Compound `Nc1nc(-c2ccc(CCCCN3CCN(c4cccc(C(F)(F)F)c4)CC3)cc2)cs1` showed a melting point of 174 to 179 °C. For `N[C@H]1CCN(c2cc3c(cc2F)c(=O)c(C(=O)O)cn3-c2c[nH]nn2)C1` the value was 300 °C.

Regarding `CCCCCCCCCCCCCCOc1ccc(CC(=O)Nc2cccc(CBr)c2)cc1`, the melting point lay within 116 to 118 °C.

`CC1(C)C(=O)N(c2ccc(C#N)c(Cl)c2)C(=O)N1CCCCCN1C(=O)N(c2ccc(C#N)c(Cl)c2)C(=O)C1(C)C`: the melting point fell in the range of 166 to 167 °C. Compound `COCC(Cl)c1nc2c(C(F)(F)F)cccc2c(O)c1C(=O)Nc1nccs1` (stereo not drawn) registered a melting point of 186 °C.
